The assay in a line: Antioxidant test, DPPH radical scavenging (Example 9). It counts as biochemical. On the procedure:
The antioxidant activity of oligoferulates prepared as described in example 1, ferulic acid (W518301, Sigma-Aldrich), gallic acid (27645, Sigma-Aldrich) and ascorbic acid (A0278, Sigma-Aldrich) was determined using a method based on the scavenging of the stable radical 2,2-diphenyl-1-picrylhydrazyl (DPPH) (Brand Williams et al, Food Sci Technol-Lebens Wissens Technol. 1995; 28:25-30) and the results expressed as IC50 (concentration of antioxidant which reduces the free radical DPPH⋅ about 50%). This method is frequently used to predict the antioxidant activities of different molecules.

Take `O=C1O[C@H]([C@@H](O)CO)C(O)=C1O` [ascorbic acid]: the “antioxidant activity IC50 (concentration which reduces the free radical DPPH about 50%)” value stood at 5 µg/mL. For `COc1cc(/C=C/C(=O)O)ccc1O` [ferulic acid] the value was 25 µg/mL; for `O=C(O)c1cc(O)c(O)c(O)c1` [gallic acid], 2 µg/mL.

The values are drawn from patent US11896009B2, “Bioactive composition for improving stress tolerance of plants” (FYTEKO, priority 2015, dated 2024).
